Results from patent US20130040882A1, “USE OF FIBROBLAST GROWTH FACTOR FRAGMENTS” (NOVARTIS AG, priority 2003, published 2013).

System: luteinising hormone and follicle-stimulating hormone genes in the pituitary gland
Experiment: Gene expression (HGU133A) in the pituitary gland of ovariectomized monkeys treated with estradiol, tamoxifen or raloxifene
Format: in vivo, cynomolgus monkeys (Macaca fascicularis)
Details: for Fold change relative to OVX: Follicle stimulating hormone / Fold change relative to OVX: Luteinising hormone / Fold expression change to SHAM control: Follicle stimulating hormone / Fold expression change to SHAM control: Luteinising hormone: pituitary gland
Experimental: Female sexually mature cynomolgus monkeys (Macaca fascicularis obtained from R. C. Hartelust B V, Tilburg, the Netherlands) approximately 48 months old were subjected to surgery (ovarectomy [OVX] or sham) 10 weeks prior to treatment and were treated for parasitic arthropods and helminthes, subjected to a tuberculin testing, and acclimated to the treatment facility for at least 14 days before beginning treatment.
Surgical Procedures. The ovariectomized cynomolgus monkey (Macaca fascicularis), which has been validated as a useful model predictive of outcomes in human clinical trials of estrogen and SERMs (Cline J M et al., Toxicol Pathol. 29:84-90 (2001)), was used as a model of estrogen deficiency. Animals were ovariectomized approximately 10 weeks before the first day of treatment. The ovaries were removed following anesthesia with a combined intramuscular injection of xylazine (Rompun®: 0.4 mL/animal, Bayer Pharma Division Sante Animale, Puteaux, France) and ketamine hydrochloride (Imalgéne®: 0.6 mL/kg, Mérial, Lyon, France). Sham-operated animals were subjected to the same surgical procedure, except for the removal of ovaries.
Ovariectomized and sham-operated animals were divided into groups of 4 and treated as outlined below.
Gene expression was determined in the pituitary and uterus at the end of drug therapy. Tissues to be analyzed (pituitary glands and uterus) were excised, snap frozen in liquid nitrogen, and stored at −80° C. until RNA extraction was performed.
Total RNA was obtained by acid guanidinium isothiocyanate-phenol-chloroform extraction (Trizol; Invitrogen Life Technologies, San Diego, Calif., USA) and purified on an affinity resin column (RNeasy; Qiagen, Hilden, Germany) according to manufacturer instructions. […] Lockhart D J, Dong H, Byrne M C, et al. Nat. Biotechnol. 1996; 14:1675-1680.
Previous studies have proven the validity of cross-species DNA chip analysis (Hacia J G et al. Nat Genet. 18:155-158 (1998)), therefore, the human gene expression probe arrays HGU133A (Affymetrix, Santa Clara, Calif., USA) containing 22,283 probe sets interrogating primarily annotated human genes were used. One GeneChip was used per tissue, per animal. The resulting image files (.dat files) were processed using the Microarray Analysis Suite 5 (MAS5) software (Affymetrix, Inc.). Tab-delimited files were obtained containing data regarding signal intensity (Signal) and categorical expression level measurement (Absolute Call).

| Compound | Fold change relative to OVX: Follicle stimulating hormone [fold] | Fold change relative to OVX: Luteinising hormone [fold] | Fold expression change to SHAM control: Follicle stimulating hormone (OVX monkeys) [fold] | Fold expression change to SHAM control: Luteinising hormone (OVX monkeys) [fold] | Decrease of FSH transcripts in the pituitary gland (OVX monkeys) [fold] | Decrease of LH transcripts in the pituitary gland (OVX monkeys) [fold] |
| --- | --- | --- | --- | --- | --- | --- |
| C#C[C@]1(O)CC[C@H]2[C@@H]3CCc4cc(O)ccc4[C@H]3CC[C@@]21C [EE] | <0.1 | 0.1 | 0.1 | 0.5 |  |  |
| O=C(c1ccc(OCCN2CCCCC2)cc1)c1c(-c2ccc(O)cc2)sc2cc(O)ccc12 [raloxifene] | 0.8 | 1.3 | 5.2 | 9.8 |  |  |
| CC/C(=C(\c1ccccc1)c1ccc(OCCN(C)C)cc1)c1ccccc1 [tamoxifen] | 0.4 | 0.4 | 2.3 | 3.2 | 2.7 | 2.4 |
